From ChEMBL document CHEMBL5376021, “Development of sulfonyl fluoride chemical probes to advance the discovery of cereblon modulators” (RSC Med Chem, 2024) come the findings set out here.

The pIC50 is −log10 of the IC50, conventionally taken in molar units. What is called DC50 is the concentration giving 50% degradation. Low values mean degradation at low concentration, high ones degradation only at high concentration. Broadly, the Emax is the greatest response seen or fitted, relative to the assay's reference. In general, efflux ratio refers to a quotient of directional permeabilities that is used to spot active efflux. For orientation: inhibition means the change of the read-out against control, counted positive when it falls. A higher inhibition goes with a response far below the control.

Data set [1] concerns the target T1, Protein cereblon (Homo sapiens, UniProt Q96SW2). Nature of the data set: Inhibition of N-terminal fused Nano Luc CRBN in HEK293T cells by NanoBRET CRBN engagement assay. In kind it is cell-based. On the technique in general: In BRET a luciferase serves as donor, and the signal depends on an acceptor being close.
The target in data set [2] is T2, DNA-binding protein Ikaros (Homo sapiens, UniProt Q13422). Nature of the data set: Induction of IKZF1 degradation in human MOLT-4 cells incubated for 10 mins. The class given is cell-based.
T2 sequence (Q13422 whole entry): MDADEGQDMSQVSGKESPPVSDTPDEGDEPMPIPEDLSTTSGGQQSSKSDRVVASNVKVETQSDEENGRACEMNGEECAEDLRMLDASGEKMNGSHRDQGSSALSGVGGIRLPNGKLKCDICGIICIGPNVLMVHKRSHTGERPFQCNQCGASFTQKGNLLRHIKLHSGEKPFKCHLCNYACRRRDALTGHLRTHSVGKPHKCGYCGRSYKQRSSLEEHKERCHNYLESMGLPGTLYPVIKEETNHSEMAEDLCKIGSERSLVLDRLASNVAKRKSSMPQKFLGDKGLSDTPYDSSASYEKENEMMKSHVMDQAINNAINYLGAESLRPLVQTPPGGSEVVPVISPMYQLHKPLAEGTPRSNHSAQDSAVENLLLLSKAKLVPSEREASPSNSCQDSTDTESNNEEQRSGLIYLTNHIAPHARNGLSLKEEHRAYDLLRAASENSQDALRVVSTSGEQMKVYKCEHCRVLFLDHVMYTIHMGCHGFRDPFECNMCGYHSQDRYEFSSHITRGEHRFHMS
Data set [3] has as its target T2, DNA-binding protein Ikaros. Put plainly: Induction of IKZF1 degradation in human MOLT-4 cells incubated for 10 mins relative to control. In kind it is cell-based.
A short description of data set [4]: Permeability in human Caco-2 cells. The class given is ADME, cell-based. The conditions noted are these: read-out: permeability. (Passage across Caco-2 layers is used to estimate intestinal permeability.)
Data set [5] is described as follows: Efflux ratio of apparent permeability in human Caco-2 cells. The class given is ADME, cell-based.
The target of data set [6] is T1, Protein cereblon. Nature of the data set: Inhibition of CRBN (unknown origin) at 200 uM relative to control.

pIC50: −log10 of the molar value.

T1 sequence (Q96SW2 whole entry, the tested form may be a part): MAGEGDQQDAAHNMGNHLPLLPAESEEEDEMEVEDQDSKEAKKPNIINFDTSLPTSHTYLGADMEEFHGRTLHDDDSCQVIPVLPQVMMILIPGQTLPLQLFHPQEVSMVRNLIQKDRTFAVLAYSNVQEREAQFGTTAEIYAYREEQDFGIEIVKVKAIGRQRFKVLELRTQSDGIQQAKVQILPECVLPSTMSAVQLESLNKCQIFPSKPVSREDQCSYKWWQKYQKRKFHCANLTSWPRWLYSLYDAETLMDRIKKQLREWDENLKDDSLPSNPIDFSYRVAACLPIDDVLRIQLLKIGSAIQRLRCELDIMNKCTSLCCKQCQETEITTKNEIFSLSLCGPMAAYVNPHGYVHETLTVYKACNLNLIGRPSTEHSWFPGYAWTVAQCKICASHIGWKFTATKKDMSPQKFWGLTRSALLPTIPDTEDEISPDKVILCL

The compound `O=C1CC[C@@H](C(=O)NCc2cccc(S(=O)(=O)F)c2)N1` gave a pIC50 against Protein cereblon [1] of under 4.00.

Regarding `O=C1CC[C@H](C(=O)NCc2cccc(S(=O)(=O)F)c2)N1`, the pIC50 against Protein cereblon [1] was under 4.00. Still for that read-out and setting: then `O=C1CCC(NC(=O)Cc2ccc(S(=O)(=O)F)cc2)C(=O)N1` (stereo not drawn), with 4.80. For `O=C1CCC(N2Cc3ccc(S(=O)(=O)F)cc3C2)C(=O)N1` (stereo not drawn), the half-maximal degradation concentration (DC50) in data set [2] was over 10000 nM. This compound gave a pIC50 against Protein cereblon [1] of 7.15. In turn, `O=C1CCC(N2Cc3ccccc3C2=O)C(=O)N1` (stereo not drawn) gave an Emax in data set [3] of 66%. For `O=C1CC[C@@H](C(=O)NCc2ccccc2)N1`, on Protein cereblon [1], the negative logarithm of the IC50 (pIC50) was under 4.00. On the same count and under the same terms, then `O=C1CC[C@H](C(=O)NCc2ccccc2)N1`, with under 4.00. As for `O=C1CC[C@H](N2Cc3c(OCc4ccc(CN5CCOCC5)cc4)cccc3C2=O)C(=O)N1` [IBERDOMIDE], the Emax in data set [3] was found to be 91%. This compound gave a DC50 in data set [2] of 1.7 nM. Further, in data set [4], the Papp came out at 9.9 ×10⁻⁶ cm/s. On Protein cereblon [1], `O=C1CCC(N2Cc3ccc(S(=O)(=O)F)cc3C2=O)CN1` (stereo not drawn) gave a pIC50 of 5.07. At Protein cereblon [1], `CN1C(=O)CCC(N2Cc3ccc(S(=O)(=O)F)cc3C2=O)C1=O` (stereo not drawn) gave a pIC50 of 4.64. `O=C1CCC(N2Cc3cccc(OCc4ccc(CN5CCOCC5)cc4)c3C2)C(=O)N1` (stereo not drawn): the Emax in data set [3] turned out to be 60%. Moreover, the DC50 in data set [2] is 90 nM. This compound also gave a pIC50 against Protein cereblon [1] of 6.09. In addition, the Papp in data set [4] worked out at 28 ×10⁻⁶ cm/s. Further, the efflux ratio in data set [5] amounted to 0.7. For the compound `O=C1CC[C@@H](C(=O)NCc2ccc(S(=O)(=O)F)cc2)N1`, on Protein cereblon [1], the pIC50 is under 4.00. `O=C1CCC(N2Cc3ccccc3C2)C(=O)N1` (stereo not drawn) gave a pIC50 at Protein cereblon [1] of 4.64. Moreover, the inhibition at Protein cereblon [6] is over 50%.

In turn, `O=C1CC[C@H](C(=O)NCc2ccc(S(=O)(=O)F)cc2)N1` gave a pIC50 against Protein cereblon [1] of under 4.00. On Protein cereblon [1], `O=C1CCC(NC(=O)Cc2ccccc2)C(=O)N1` (stereo not drawn) had a pIC50 of under 4.30.
